Laboratory results reported in patent US9694016B2 (Novartis AG, priority 2013, dated 2017).
Like-named read-outs stand apart in the source and are kept apart here.

Target: b-Raf (V600E) (Homo sapiens (Human), UniProt P15056, V600E)
Conditions: read-out: b-Raf IC-50, AlphaScreen
[1] = 60 min pre-incubation, 3 hours reaction
[2] = 60 min pre-incubation, reaction 3 hours at room temperature

Sequence of b-Raf (V600E) (P15056 whole entry V600E): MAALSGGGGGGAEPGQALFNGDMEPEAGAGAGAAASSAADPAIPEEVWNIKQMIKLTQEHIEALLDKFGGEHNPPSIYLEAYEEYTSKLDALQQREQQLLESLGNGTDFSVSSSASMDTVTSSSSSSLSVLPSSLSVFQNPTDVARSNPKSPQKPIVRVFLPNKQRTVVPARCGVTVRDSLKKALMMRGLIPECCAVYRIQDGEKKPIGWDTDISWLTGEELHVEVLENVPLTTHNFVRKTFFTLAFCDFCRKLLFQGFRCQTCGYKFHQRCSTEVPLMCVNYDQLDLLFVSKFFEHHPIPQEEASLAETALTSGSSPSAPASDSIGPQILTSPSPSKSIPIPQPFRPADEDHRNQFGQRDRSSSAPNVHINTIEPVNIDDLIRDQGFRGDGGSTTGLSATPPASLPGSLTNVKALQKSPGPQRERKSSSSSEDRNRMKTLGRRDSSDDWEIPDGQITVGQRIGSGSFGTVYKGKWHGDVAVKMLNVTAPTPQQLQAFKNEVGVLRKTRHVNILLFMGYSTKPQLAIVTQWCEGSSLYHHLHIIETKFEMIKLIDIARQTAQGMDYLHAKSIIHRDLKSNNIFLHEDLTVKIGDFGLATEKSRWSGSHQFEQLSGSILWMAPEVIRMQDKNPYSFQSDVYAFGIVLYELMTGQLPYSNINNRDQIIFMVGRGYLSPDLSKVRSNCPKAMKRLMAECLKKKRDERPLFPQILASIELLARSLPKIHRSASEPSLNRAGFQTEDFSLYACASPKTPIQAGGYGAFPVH

| IC50 [1] | IC50 [2] | Structure (SMILES) | further results |
| --- | --- | --- | --- |
| 30.9 nM |  | Cc1ncc(NC(=O)c2ccnc(C(C)(C)C#N)c2)cc1-c1cc(N2CCOCC2)nc(NC2(CO)CCOCC2)n1 [Example 753, 2-(2-cyanopropan-2-yl)-N-(5-(2-((4-(hydroxymethyl)tetrahydro-2H-pyran-4-yl)amino)-6-morpholinopyrimidin-4-yl)-6-methylpyridin-3-yl)isonicotinamide] |  |
|  | 5.75 nM | Cc1ccc(NC(=O)c2ccnc(C(C)(C)O)c2)cc1-c1cc(N2CCOCC2)nc(N2CC(O)C2)c1 [Example 1098, N-(3-(2-(3-hydroxyazetidin-1-yl)-6-morpholinopyridin-4-yl)-4-methylphenyl)-2-(2-hydroxypropan-2-yl)isonicotinamide] |  |
|  | 8.24 nM | Cc1ncc(NC(=O)c2cnnc(C3CC3)c2)cc1-c1cc(NCCO)nc(N2CCOCC2)c1 [Example 1052, 6-cyclopropyl-N-(2′-((2-hydroxyethyl)amino)-2-methyl-6′-morpholino-[3,4′-bipyridin]-5-yl)pyridazine-4-carboxamide] |  |
|  |  | Cc1ccc(NC(=O)c2cn(C(C)C)nc2C)cc1-c1cc(N2CCOCC2)c(=O)n(C)c1 [Example 367, 1-isopropyl-3-methyl-N-(4-methyl-3-(1-methyl-5-morpholino-6-oxo-1,6-dihydropyridin-3-yl)phenyl)-1H-pyrazole-4-carboxamide] | IC50 (Table 2, 3 hours reaction): 12.6 nM |
|  |  | CC(C)c1cc(C(=O)Nc2ccc(Cl)c(-c3cc(N4CCOCC4)c(=O)n(C)c3)c2)ccn1 [Example 421, N-(4-chloro-3-(1-methyl-5-morpholino-6-oxo-1,6-dihydropyridin-3-yl)phenyl)-2-isopropylisonicotinamide] | IC50 (Table 2, 3 hours reaction): 1 nM |
|  | 270 nM | Cc1ccc(NC(=O)[C@@H]2CCN[C@H](C(F)(F)F)C2)cc1-c1cc(C2COCCO2)nc(N2CCOCC2)c1 (stereo in doubt) [Example 1132, N-(3-(2-(1,4-dioxan-2-yl)-6-morpholinopyridin-4-yl)-4-methylphenyl)-2-(trifluoromethyl)piperidine-4-carboxamide] |  |
|  |  | Cc1ncc(NC(=O)c2cc(CN(C)C)cc(C(F)(F)F)c2)cc1-c1cnc(C#N)c(N2CCOCC2)c1 [Example 249, N-(6′-cyano-2-methyl-5′-morpholino-[3,3′-bipyridin]-5-yl)-3-((dimethylamino)methyl)-5-(trifluoromethyl)benzamide] | IC50 (Table 2, 3 hours reaction): 36.5 nM |
| 2.6 nM |  | Cc1ccc(NC(=O)c2ccnc(C(C)(C)O)c2)cc1-c1cc(N2CCOCC2)n2nccc2n1 [Example 794, 2-(2-hydroxypropan-2-yl)-N-(4-methyl-3-(7-morpholinopyrazolo[1,5-a]pyrimidin-5-yl)phenyl)isonicotinamide] |  |
|  | 26.5 nM | CCN1CCN(c2cc(C(=O)Nc3cnc(C)c(-c4cc(N5CCOCC5)nc(N5CC(O)C5)c4)c3)cc(C(F)(F)F)c2)CC1 [Example 1087, 3-(4-ethylpiperazin-1-yl)-N-(2′-(3-hydroxyazetidin-1-yl)-2-methyl-6′-morpholino-[3,4′-bipyridin]-5-yl)-5-(trifluoromethyl)benzamide] |  |
|  |  | Cc1ccc(NC(=O)c2cccc(OC(C)C)c2)cc1-c1cc(N2CCOCC2)c(=O)n(C)c1 [Example 345, 3-isopropoxy-N-(4-methyl-3-(1-methyl-5-morpholino-6-oxo-1,6-dihydropyridin-3-yl)phenyl)benzamide] | IC50 (Table 2, 3 hours reaction): 1.6 nM |
|  |  | Cc1ccc(NC(=O)c2ccnc(C(C)(C)C#N)c2)cc1-c1cc(N2CCOCC2)c(=O)n(CC2(C)COC2)c1 [Example 338, 2-(2-cyanopropan-2-yl)-N-(4-methyl-3-(1-((3-methyloxetan-3-yl)methyl)-5-morpholino-6-oxo-1,6-dihydropyridin-3-yl)phenyl)isonicotinamide] | IC50 (Table 2, 3 hours reaction): 9000 nM |
| 3.1 nM |  | Cc1ncc(NC(=O)c2ccnc(C3(C#N)CC3)c2)cc1-c1cc(N2CCOCC2)n2nccc2n1 [Example 802, 2-(1-cyanocyclopropyl)-N-(6-methyl-5-(7-morpholinopyrazolo[1,5-a]pyrimidin-5-yl)pyridin-3-yl)isonicotinamide] |  |
| 0.6 nM |  | Cc1ccc(NC(=O)c2cccc(C(C)(C)C#N)c2)cc1-c1cc(N2CCOCC2)c2nccn2n1 [Example 846, 3-(2-cyanopropan-2-yl)-N-(4-methyl-3-(8-morpholinoimidazo[1,2-b]pyridazin-6-yl)phenyl)benzamide] |  |
|  | 15.7 nM | Cc1ncc(NC(=O)c2ccnc(C(F)F)c2)cc1-c1cc(NCCO)nc(N2CCOC[C@H]2C)c1 [Example 1141, (R)-2-(difluoromethyl)-N-(2′-((2-hydroxyethyl)amino)-2-methyl-6′-(3-methylmorpholino)-[3,4′-bipyridin]-5-yl)isonicotinamide] |  |
|  |  | CCC(F)(F)c1cc(C(=O)Nc2ccc(C)c(-c3cc(N4CCOCC4)c(=O)n(C)c3)c2)ccn1 [Example 341, 2-(1,1-difluoropropyl)-N-(4-methyl-3-(1-methyl-5-morpholino-6-oxo-1,6-dihydropyridin-3-yl)phenyl)isonicotinamide] | IC50 (Table 2, 3 hours reaction): 2 nM |
| 5.3 nM |  | Cc1ncc(NC(=O)c2cccc(C(F)F)c2)cc1-c1cc(N2CCOCC2)nc(N2CC(O)C2)n1 [Example 770, 3-(difluoromethyl)-N-(5-(2-(3-hydroxyazetidin-1-yl)-6-morpholinopyrimidin-4-yl)-6-methylpyridin-3-yl)benzamide] |  |

| IC50 [1] | IC50 [2] | Structure (SMILES) | further results |
| --- | --- | --- | --- |
|  | 2.04 nM | Cc1ncc(NC(=O)c2cncc(C(F)(F)F)c2)cc1-c1cnc(OCC(F)F)c(N2CCOCC2)c1 [Example 935, N-(6′-(2,2-difluoroethoxy)-2-methyl-5′-morpholino-[3,3′-bipyridin]-5-yl)-5-(trifluoromethyl)nicotinamide] |  |
| 7.3 nM |  | Cc1ccc(NC(=O)c2cccc(-c3nnco3)c2)cc1-c1cc(N2CCOCC2)c(=O)n(C)n1 [Example 639, N-(4-methyl-3-(1-methyl-5-morpholino-6-oxo-1,6-dihydropyridazin-3-yl)phenyl)-3-(1,3,4-oxadiazol-2-yl)benzamide] |  |
|  | 18.1 nM | Cc1ncc(NC(=O)c2ccnc(C(C)(C)O)c2)cc1-c1cnc(OC(C)C)c(N2CCOCC2)c1 [Example 955, 2-(2-hydroxypropan-2-yl)-N-(6′-isopropoxy-2-methyl-5′-morpholino-[3,3′-bipyridin]-5-yl)isonicotinamide] |  |
|  | 0.86 nM | Cc1ccc(NC(=O)c2ccnc(C(F)F)c2)cc1-c1cc(NCCO)nc(N2CCOCC2)c1 [Example 1053, 2-(difluoromethyl)-N-(3-(2-((2-hydroxyethyl)amino)-6-morpholinopyridin-4-yl)-4-methylphenyl)isonicotinamide] |  |
| 3.1 nM |  | Cc1ccc(NC(=O)c2cccc(C(F)(F)F)c2)cc1-c1nc2c(c(N3CCOCC3)n1)CNC2 [Example 836, N-(4-methyl-3-(4-morpholino-6,7-dihydro-5H-pyrrolo[3,4-d]pyrimidin-2-yl)phenyl)-3-(trifluoromethyl)benzamide] |  |
|  |  | Cc1ncc(NC(=O)c2cc(C(F)(F)F)nn2C)cc1-c1cc(N2CCOCC2)c(=O)n(C)c1 [Example 382, N-(1′,2-dimethyl-5′-morpholino-6′-oxo-1′,6′-dihydro-[3,3′-bipyridin]-5-yl)-1-methyl-3-(trifluoromethyl)-1H-pyrazole-5-carboxamide] | IC50 (Table 2, 3 hours reaction): 900 nM |
|  | 5.09 nM | Cc1ccc(NC(=O)c2cc(C(C)(C)C#N)ccn2)cc1-c1cc(N2CCOCC2)c(=O)n(C)n1 [Example 910, 4-(2-cyanopropan-2-yl)-N-(4-methyl-3-(1-methyl-5-morpholino-6-oxo-1,6-dihydropyridazin-3-yl)phenyl)picolinamide] |  |
| 1.3 nM |  | Cc1ncc(NC(=O)c2cccc(C(F)(F)F)c2)cc1-c1cc(N2CCOCC2)c(OC2CCOCC2)nn1 [Example 636, N-(6-methyl-5-(5-morpholino-6-((tetrahydro-2H-pyran-4-yl)oxy)pyridazin-3-yl)pyridin-3-yl)-3-(trifluoromethyl)benzamide] |  |
| 1 nM |  | CCNc1nc(-c2cc(NC(=O)c3ccnc(C(F)(F)F)c3)ccc2C)cc(N2CCOCC2)n1 [Example 694, N-(3-(2-(ethylamino)-6-morpholinopyrimidin-4-yl)-4-methylphenyl)-2-(trifluoromethyl)isonicotinamide] |  |
|  | 23.3 nM | Cc1ncc(NC(=O)c2cccc(S(C)(=O)=O)c2)cc1-c1cc(N2CCOCC2)nc(N2CC(O)C2)c1 [Example 1084, N-(2′-(3-hydroxyazetidin-1-yl)-2-methyl-6′-morpholino-[3,4′-bipyridin]-5-yl)-3-(methylsulfonyl)benzamide] |  |
| 3 nM |  | Cc1ncc(NC(=O)c2cnnc(C(F)(F)F)c2)cc1-c1cc(N2CCOCC2)n2nccc2n1 [Example 801, N-(6-methyl-5-(7-morpholinopyrazolo[1,5-a]pyrimidin-5-yl)pyridin-3-yl)-6-(trifluoromethyl)pyridazine-4-carboxamide] |  |
|  | 0.91 nM | Cc1ccc(NC(=O)c2ccnc(C3CC3)c2)cc1-c1cnc(OCCO)c(N2CCOCC2)c1 [Example 999, 2-cyclopropyl-N-(3-(6-(2-hydroxyethoxy)-5-morpholinopyridin-3-yl)-4-methylphenyl)isonicotinamide] |  |
| 1.1 nM |  | Cc1ccc(NC(=O)c2ccnc(C(C)(F)F)c2)cc1-c1cc(N2CCOCC2)c(OCCO)nn1 [Example 587, 2-(1,1-difluoroethyl)-N-(3-(6-(2-hydroxyethoxy)-5-morpholinopyridazin-3-yl)-4-methylphenyl)isonicotinamide] |  |
| 20.5 nM |  | CCNc1nc(-c2cc(NC(=O)c3ccnc(C(C)(C)C)c3)cnc2C)cc(N2CCOCC2)n1 [Example 724, 2-(tert-butyl)-N-(5-(2-(ethylamino)-6-morpholinopyrimidin-4-yl)-6-methylpyridin-3-yl)isonicotinamide] |  |
|  |  | Cn1cc(-c2cc(NC(=O)c3ccnc(C(F)(F)F)c3)ccc2Cl)cc(N2CCOCC2)c1=O [Example 413, N-(4-chloro-3-(1-methyl-5-morpholino-6-oxo-1,6-dihydropyridin-3-yl)phenyl)-2-(trifluoromethyl)isonicotinamide] | IC50 (Table 2, 3 hours reaction): 0.4 nM |

| Structure (SMILES) | IC50 [1] | IC50 [2] | further results |
| --- | --- | --- | --- |
| Cc1ccc(NC(=O)c2ccnc(C(C)(C)C#N)c2)cc1-c1cc(N2CC3CC(C2)O3)c(=O)n(C)c1 [Example 465, N-(3-(5-(6-oxa-3-azabicyclo[3.1.1]heptan-3-yl)-1-methyl-6-oxo-1,6-dihydropyridin-3-yl)-4-methylphenyl)-2-(2-cyanopropan-2-yl)isonicotinamide] | 100 nM |  |  |
